Measurements as given in ChEMBL document CHEMBL3885861, “Open TG-GATES”.

Organism: Rattus norvegicus
Assay: Open TG-GATES - Regimen: Single
Type: toxicity, organism-based, Sprague-Dawley
Set-up: regimen Single, gender Male, age 6 weeks
Settings: in vivo, po, route gavage; for APTT / Bas / Eos / Fbg / Hb / Ht / Lym / MCH / MCHC / MCV / Mono / Neu / PT / Plat / RBC / Ret / WBC: tissue Blood; for KIDNEY_L / KIDNEY_R / KIDNEY_TOTAL: tissue Kidney; for LIVER: tissue Liver; for A/G / ALP / ALT / AST / BUN / CRE / Ca / Cl / DBIL / GLC / IP / K / LDH / Na / PL / RALB / TBIL / TC / TG / TP / gamma-GTP: tissue Plasma
[1] = 0 mg/kg, 3 h, dose level Control
[2] = 0 mg/kg, 6 h, dose level Control
[3] = 0 mg/kg, 9 h, dose level Control
[4] = 0 mg/kg, 24 h, dose level Control
[5] = 100 mg/kg, 24 h, dose level Low

## O=C(O)c1cc(/N=N/c2ccc(S(=O)(=O)Nc3ccccn3)cc2)ccc1O [SULFASALAZINE]
[1]
  TERMINAL_BW: 209.5 g
  APTT: 18.5 s
  Bas: 0%
  Eos: 0.8%
  Fbg: 220.4 mg/dL
  Hb: 12.8 g/dL
  Ht: 38.5%
  Lym: 80.4%
  MCH: 21.2 pg
  MCHC: 33.4%
  MCV: 63.4 fL
  Mono: 1.8%
  Neu: 16.4%
  PT: 12.8 s
  Plat: 116.8 x10_4/uL
  RBC: 607.8 x10_4/ul
  Ret: 7.5%
  WBC: 77.9 x10_2/uL
  KIDNEY_L: 0.9 g
  KIDNEY_R: 0.9 g
  KIDNEY_TOTAL: 1.9 g
  LIVER: 9.9 g
  A/G: 1.5
  ALP: 1055 IU/L
  ALT: 36.8 IU/L
  AST: 60.2 IU/L
  BUN: 12 mg/dL
  CRE: 0.4 mg/dL
  Ca: 10.6 mg/dL
  Cl: 101.6 meq/L
  DBIL: 0.074 mg/dL
  GLC: 196 mg/dL
  IP: 9.4 mg/dL
  K: 3.9 meq/L
  LDH: 182 IU/L
  Na: 140.2 meq/L
  PL: 140.6 mg/dL
  RALB: 3.2 g/dL
  TBIL: 0.1 mg/dL
  TC: 78 mg/dL
  TG: 73.8 mg/dL
  TP: 5.5 g/dL
  gamma-GTP: 1.4 IU/L
[2]
  TERMINAL_BW: 206.9 g
  APTT: 20.7 s
  Bas: 0%
  Eos: 1%
  Fbg: 224 mg/dL
  Hb: 13.2 g/dL
  Ht: 38.3%
  Lym: 75.8%
  MCH: 21.8 pg
  MCHC: 34.4%
  MCV: 63.6 fL
  Mono: 2.8%
  Neu: 19.2%
  PT: 12.9 s
  Plat: 114.7 x10_4/uL
  RBC: 602.8 x10_4/ul
  Ret: 7.7%
  WBC: 74.8 x10_2/uL
  KIDNEY_L: 1 g
  KIDNEY_R: 1 g
  KIDNEY_TOTAL: 2 g
  LIVER: 9.4 g
  A/G: 1.6
  ALP: 989.2 IU/L
  ALT: 35.8 IU/L
  AST: 65.8 IU/L
  BUN: 10.4 mg/dL
  CRE: 0.3 mg/dL
  Ca: 10.6 mg/dL
  Cl: 101.6 meq/L
  DBIL: 0.07 mg/dL
  GLC: 189.2 mg/dL
  IP: 9.4 mg/dL
  K: 4 meq/L
  LDH: 182.6 IU/L
  Na: 140.6 meq/L
  PL: 141.2 mg/dL
  RALB: 3.3 g/dL
  TBIL: 0.1 mg/dL
  TC: 73.2 mg/dL
  TG: 58 mg/dL
  TP: 5.4 g/dL
  gamma-GTP: 1.2 IU/L
[3]
  TERMINAL_BW: 205 g
  APTT: 18.9 s
  Bas: 0%
  Eos: 1%
  Fbg: 213.2 mg/dL
  Hb: 13.1 g/dL
  Ht: 38.3%
  Lym: 72.6%
  MCH: 21.5 pg
  MCHC: 34.1%
  MCV: 63 fL
  Mono: 3%
  Neu: 22.2%
  PT: 12.8 s
  Plat: 115.1 x10_4/uL
  RBC: 608.8 x10_4/ul
  Ret: 7%
  WBC: 85.1 x10_2/uL
  KIDNEY_L: 0.9 g
  KIDNEY_R: 0.9 g
  KIDNEY_TOTAL: 1.8 g
  LIVER: 8.7 g
  A/G: 1.6
  ALP: 765.6 IU/L
  ALT: 31.8 IU/L
  AST: 63.2 IU/L
  BUN: 11.4 mg/dL
  CRE: 0.4 mg/dL
  Ca: 10.5 mg/dL
  Cl: 103 meq/L
  DBIL: 0.078 mg/dL
  GLC: 207.2 mg/dL
  IP: 9.3 mg/dL
  K: 3.9 meq/L
  LDH: 194.2 IU/L
  Na: 141.2 meq/L
  PL: 142.2 mg/dL
  RALB: 3.4 g/dL
  TBIL: 0.1 mg/dL
  TC: 73.2 mg/dL
  TG: 76.4 mg/dL
  TP: 5.5 g/dL
  gamma-GTP: 2 IU/L
[4]
  TERMINAL_BW: 224.5 g
  APTT: 18.9 s
  Bas: 0%
  Eos: 1%
  Fbg: 220.8 mg/dL
  Hb: 13.3 g/dL
  Ht: 39%
  Lym: 73.8%
  MCH: 21.9 pg
  MCHC: 34%
  MCV: 64.3 fL
  Mono: 3.6%
  Neu: 20.4%
  PT: 12.1 s
  Plat: 117.1 x10_4/uL
  RBC: 607.2 x10_4/ul
  Ret: 6.9%
  WBC: 89.1 x10_2/uL
  KIDNEY_L: 1 g
  KIDNEY_R: 1 g
  KIDNEY_TOTAL: 2 g
  LIVER: 10.8 g
  A/G: 1.5
  ALP: 961.8 IU/L
  ALT: 45 IU/L
  AST: 75.8 IU/L
  BUN: 16.6 mg/dL
  CRE: 0.4 mg/dL
  Ca: 10.7 mg/dL
  Cl: 101.6 meq/L
  DBIL: 0.1 mg/dL
  GLC: 193.8 mg/dL
  IP: 8.1 mg/dL
  K: 4.1 meq/L
  LDH: 214.4 IU/L
  Na: 140 meq/L
  PL: 181.4 mg/dL
  RALB: 3.4 g/dL
  TBIL: 0.2 mg/dL
  TC: 89.4 mg/dL
  TG: 133 mg/dL
  TP: 5.6 g/dL
  gamma-GTP: 1.2 IU/L
100 mg/kg, 3 h, dose level Low
  TERMINAL_BW: 211 g
  APTT: 19.2 s
  Bas: 0%
  Eos: 1%
  Fbg: 216.6 mg/dL
  Hb: 13 g/dL
  Ht: 38.4%
  Lym: 77.2%
  MCH: 21.5 pg
  MCHC: 33.9%
  MCV: 63.4 fL
  Mono: 2.4%
  Neu: 18.6%
  PT: 12.5 s
  Plat: 129.8 x10_4/uL
  RBC: 605.4 x10_4/ul
  Ret: 7.1%
  WBC: 92.9 x10_2/uL
  KIDNEY_L: 1 g
  KIDNEY_R: 0.9 g
  KIDNEY_TOTAL: 1.9 g
  LIVER: 10.2 g
  A/G: 1.6
  ALP: 984.8 IU/L
  ALT: 37.4 IU/L
  AST: 69.4 IU/L
  BUN: 11 mg/dL
  CRE: 0.4 mg/dL
  Ca: 10.6 mg/dL
  Cl: 102.2 meq/L
  DBIL: 0.068 mg/dL
  GLC: 201.8 mg/dL
  IP: 9.5 mg/dL
  K: 3.7 meq/L
  LDH: 166.6 IU/L
  Na: 140.8 meq/L
  PL: 148 mg/dL
  RALB: 3.3 g/dL
  TBIL: 0.1 mg/dL
  TC: 80 mg/dL
  TG: 59.4 mg/dL
  TP: 5.4 g/dL
  gamma-GTP: 1.2 IU/L
100 mg/kg, 6 h, dose level Low
  TERMINAL_BW: 210.8 g
  APTT: 19 s
  Bas: 0%
  Eos: 1%
  Fbg: 218.6 mg/dL
  Hb: 13.2 g/dL
  Ht: 38.5%
  Lym: 73.6%
  MCH: 21.9 pg
  MCHC: 34.3%
  MCV: 63.9 fL
  Mono: 3%
  Neu: 21.2%
  PT: 12.7 s
  Plat: 111 x10_4/uL
  RBC: 603.2 x10_4/ul
  Ret: 7.2%
  WBC: 89.7 x10_2/uL
  KIDNEY_L: 1 g
  KIDNEY_R: 1 g
  KIDNEY_TOTAL: 2 g
  LIVER: 9.7 g
  A/G: 1.6
  ALP: 986.4 IU/L
  ALT: 35.8 IU/L
  AST: 68.4 IU/L
  BUN: 10.2 mg/dL
  CRE: 0.4 mg/dL
  Ca: 10.6 mg/dL
  Cl: 101.8 meq/L
  DBIL: 0.066 mg/dL
  GLC: 193.6 mg/dL
  IP: 9.7 mg/dL
  K: 3.9 meq/L
  LDH: 198.6 IU/L
  Na: 140.2 meq/L
  PL: 148 mg/dL
  RALB: 3.3 g/dL
  TBIL: 0.1 mg/dL
  TC: 76.6 mg/dL
  TG: 61.2 mg/dL
  TP: 5.4 g/dL
  gamma-GTP: 1.6 IU/L
100 mg/kg, 9 h, dose level Low
  TERMINAL_BW: 204.7 g
  APTT: 19.3 s
  Bas: 0%
  Eos: 1%
  Fbg: 225.8 mg/dL
  Hb: 13.2 g/dL
  Ht: 38.8%
  Lym: 82.4%
  MCH: 21.4 pg
  MCHC: 34%
  MCV: 63 fL
  Mono: 3.4%
  Neu: 12.4%
  PT: 12.8 s
  Plat: 113 x10_4/uL
  RBC: 616.6 x10_4/ul
  Ret: 6.7%
  WBC: 76.6 x10_2/uL
  KIDNEY_L: 1 g
  KIDNEY_R: 1 g
  KIDNEY_TOTAL: 2 g
  LIVER: 8.7 g
  A/G: 1.6
  ALP: 932.8 IU/L
  ALT: 35.4 IU/L
  AST: 63.8 IU/L
  BUN: 9.4 mg/dL
  CRE: 0.3 mg/dL
  Ca: 10.6 mg/dL
  Cl: 102.2 meq/L
  DBIL: 0.068 mg/dL
  GLC: 194.2 mg/dL
  IP: 10.2 mg/dL
  K: 3.8 meq/L
  LDH: 198.8 IU/L
  Na: 139.8 meq/L
  PL: 145.4 mg/dL
  RALB: 3.3 g/dL
  TBIL: 0.1 mg/dL
  TC: 83 mg/dL
  TG: 41.6 mg/dL
  TP: 5.5 g/dL
  gamma-GTP: 1.2 IU/L
[5]
  TERMINAL_BW: 221.5 g
  APTT: 17.9 s
  Bas: 0%
  Eos: 1%
  Fbg: 234.6 mg/dL
  Hb: 13.2 g/dL
  Ht: 38.5%
  Lym: 81%
  MCH: 21.2 pg
  MCHC: 34.4%
  MCV: 61.8 fL
  Mono: 2.8%
  Neu: 13.8%
  PT: 12.5 s
  Plat: 123 x10_4/uL
  RBC: 624 x10_4/ul
  Ret: 6.3%
  WBC: 86.3 x10_2/uL
  KIDNEY_L: 1 g
  KIDNEY_R: 1 g
  KIDNEY_TOTAL: 2 g
  LIVER: 10.5 g
  A/G: 1.6
  ALP: 1020.4 IU/L
  ALT: 40.4 IU/L
  AST: 64.6 IU/L
  BUN: 15.2 mg/dL
  CRE: 0.4 mg/dL
  Ca: 10.8 mg/dL
  Cl: 101.4 meq/L
  DBIL: 0.092 mg/dL
  GLC: 184 mg/dL
  IP: 7.7 mg/dL
  K: 4.1 meq/L
  LDH: 213 IU/L
  Na: 139.8 meq/L
  PL: 158.2 mg/dL
  RALB: 3.5 g/dL
  TBIL: 0.1 mg/dL
  TC: 79.6 mg/dL
  TG: 88.8 mg/dL
  TP: 5.7 g/dL
  gamma-GTP: 1.6 IU/L
